Data from the OligoGym collection.
HELM strings list units from the 5' end as sugar, base in round brackets, then linkage (d deoxyribose, r ribose, m 2'-O-methyl, p phosphodiester). Strings are as the collection lists them, not checked against the first reports. ss, as = sense and antisense strand; [fl2r] = 2'-fluoro

Conditions: siRNA
Further: test system not given here.

Substance	target mRNA knockdown [%]
RNA1{r(U)p.r(U)p.m(A)p.m(C)p.r(A)p.r(A)p.r(A)p.r(G)p.r(G)p.r(A)p.r(U)p.r(C)p.r(U)p.r(C)p.r(C)p.r(U)p.r(C)p.r(C)p.r(C)p.r(T)p.r(T)}|RNA2{r(G)p.r(G)p.r(G)p.r(A)p.r(G)p.r(G)p.r(A)p.r(G)p.r(A)p.r(U)p.r(C)p.r(C)p.r(U)p.r(U)p.r(U)p.r(G)p.m(U)p.r(A)p.r(A)p.r(T)p.r(T)}$$$RNA1{StrandType:ss}|RNA2{StrandType:as}$	74
RNA1{r(U)p.r(U)p.m(U)p.r(G)p.r(A)p.r(U)p.m(C)p.r(A)p.r(G)p.r(C)p.r(G)p.r(G)p.r(A)p.r(G)p.r(A)p.r(C)p.r(U)p.r(C)p.r(G)p.r(T)p.r(T)}|RNA2{r(C)p.r(G)p.r(A)p.r(G)p.r(U)p.r(C)p.r(U)p.r(C)p.r(C)p.r(G)p.r(C)p.m(U)p.r(G)p.r(A)p.r(U)p.m(C)p.r(A)p.r(A)p.r(A)p.r(T)p.r(T)}$$$RNA1{StrandType:ss}|RNA2{StrandType:as}$	89
RNA1{r(U)p.r(U)p.r(C)p.[fl2r](U)p.r(A)p.r(A)p.r(C)p.r(C)p.r(G)p.r(G)p.r(G)p.[fl2r](C)p.r(A)p.r(G)p.r(C)p.r(U)p.r(U)p.r(C)p.r(U)p.r(T)p.r(T)}|RNA2{r(A)p.r(G)p.r(A)p.r(A)p.r(G)p.r(C)p.[fl2r](U)p.r(G)p.r(C)p.r(C)p.r(C)p.r(G)p.r(G)p.r(U)p.[fl2r](U)p.r(A)p.r(G)p.r(A)p.r(A)p.r(T)p.r(T)}$$$RNA1{StrandType:ss}|RNA2{StrandType:as}$	71
RNA1{r(U)p.r(U)p.r(C)p.[fl2r](U)p.r(A)p.r(A)p.r(C)p.r(C)p.r(G)p.r(G)p.r(G)p.r(C)p.r(A)p.r(G)p.r(C)p.r(U)p.r(U)p.r(C)p.r(U)p.r(T)p.r(T)}|RNA2{r(A)p.r(G)p.r(A)p.r(A)p.r(G)p.r(C)p.r(U)p.r(G)p.r(C)p.r(C)p.r(C)p.r(G)p.r(G)p.r(U)p.[fl2r](U)p.r(A)p.r(G)p.r(A)p.r(A)p.r(T)p.r(T)}$$$RNA1{StrandType:ss}|RNA2{StrandType:as}$	72
RNA1{r(U)p.r(U)p.r(U)p.[fl2r](C)p.[fl2r](C)p.[fl2r](C)p.[fl2r](C)p.[fl2r](C)p.r(A)p.r(G)p.r(G)p.r(U)p.r(A)p.r(A)p.[fl2r](C)p.r(G)p.r(A)p.r(U)p.r(U)p.r(T)p.r(T)}|RNA2{r(A)p.r(A)p.r(U)p.[fl2r](C)p.r(G)p.r(U)p.r(U)p.[fl2r](A)p.[fl2r](C)p.r(C)p.r(U)p.r(G)p.r(G)p.r(G)p.r(G)p.r(G)p.r(A)p.r(A)p.r(A)p.r(T)p.r(T)}$$$RNA1{StrandType:ss}|RNA2{StrandType:as}$	68
RNA1{r(U)p.r(U)p.r(U)p.m(G)p.r(A)p.r(U)p.m(C)p.r(A)p.r(G)p.r(C)p.r(G)p.r(G)p.r(A)p.r(G)p.r(A)p.r(C)p.r(U)p.r(C)p.r(G)p.r(T)p.r(T)}|RNA2{r(C)p.r(G)p.r(A)p.r(G)p.r(U)p.r(C)p.r(U)p.r(C)p.r(C)p.r(G)p.r(C)p.r(U)p.r(G)p.r(A)p.r(U)p.r(C)p.r(A)p.r(A)p.r(A)p.r(T)p.r(T)}$$$RNA1{StrandType:ss}|RNA2{StrandType:as}$	82
RNA1{r(U)p.r(U)p.r(U)p.r(C)p.r(A)p.r(C)p.r(U)p.r(A)p.r(C)p.r(U)p.r(C)p.r(C)p.r(U)p.r(A)p.r(C)p.r(G)p.r(A)p.r(G)p.r(C)p.d(T)p.d(T)}|RNA2{r(G)p.r(C)p.r(U)p.r(C)p.r(G)p.r(U)p.r(A)p.r(G)p.r(G)p.r(A)p.r(G)p.r(U)p.r(A)p.r(G)p.r(U)p.r(G)p.r(A)p.r(A)p.r(A)p.d(T)p.d(T)}$$$RNA1{StrandType:ss}|RNA2{StrandType:as}$	0
RNA1{r(U)p.r(U)p.r(U)p.r(C)p.r(C)p.r(C)p.r(C)p.r(C)p.[fl2r](A)p.[fl2r](G)p.[fl2r](G)p.r(U)p.[fl2r](A)p.[fl2r](A)p.[fl2r](C)p.[fl2r](G)p.r(A)p.r(U)p.r(U)p.r(T)p.r(T)}|RNA2{r(A)p.r(A)p.r(U)p.r(C)p.r(G)p.r(U)p.r(U)p.r(A)p.r(C)p.r(C)p.r(U)p.r(G)p.r(G)p.r(G)p.r(G)p.r(G)p.r(A)p.r(A)p.r(A)p.r(T)p.r(T)}$$$RNA1{StrandType:ss}|RNA2{StrandType:as}$	78
RNA1{r(U)p.r(U)p.r(U)p.r(C)p.r(C)p.r(C)p.r(C)p.r(C)p.r(A)p.r(G)p.r(G)p.[fl2r](U)p.r(A)p.r(A)p.r(C)p.r(G)p.r(A)p.r(U)p.r(U)p.r(T)p.r(T)}|RNA2{r(A)p.r(A)p.r(U)p.r(C)p.r(G)p.r(U)p.[fl2r](U)p.r(A)p.r(C)p.r(C)p.r(U)p.r(G)p.r(G)p.r(G)p.r(G)p.r(G)p.r(A)p.r(A)p.r(A)p.r(T)p.r(T)}$$$RNA1{StrandType:ss}|RNA2{StrandType:as}$	75
